This is an account of results in PMC9077138, “An investigation on 3-acetyl-7-methoxy-coumarin Schiff bases and their Ru(II) metallates with potent antiproliferative activity and enhanced LDH and NO release” (RSC Advances, 2018).

SMILES strings stand for the structures.

The subject of test [1] is S. aureus. In words: In vitro antibacterial assay (zone of inhibition, MIC). The note with it: S. aureus. The class given is cell-based, Staphylococcus aureus. Here is the method:
(§1) The free ligands and their cyclometallated ruthenium(II) carbonyl complexes were screened for their in vitro antimicrobial activity against certain pathogenic bacterial and fungal species at three different concentrations using disc diffusion method.
(§2) Antimicrobial activities of [RuHClCO(PPh3)3], ligands H2L^1–4 and new organometallic Ru(II) complexes (1–4) were evaluated by agar well diffusion method[76] as reported, by taking Staphylococcus aureus, Streptococcus pneumonie, Pseudomonas aeruginosa, Salmonella paratyphi and fungus such as Candida albicans, Trichophyton rubrum, Aspergillus niger, Aspergillus fumigatus and Candida tropicalis. The above said all test organisms were obtained from the MTCC, Chandigarh, India and Microbiological laboratory, Coimbatore, Tamil Nadu, India. The antimicrobial activity of the test compounds was checked with various concentrations (25 μg ml^−1, 50 μg ml^−1 and 100 μg ml^−1) against all the test pathogens. Gentamicin and ketoconazole were used as positive controls to study the antibacterial and antifungal activities respectively. Each experiment was performed in triplicate and the results are represented as average zone of inhibition and minimum inhibitory concentration of all the test pathogens.

Test [2] relates to S. pneumonie. Described as above. The class given is cell-based, Streptococcus pneumonie. Conditions: S. pneumonie. Here is the method:
as §1, §2

The subject of test [3] is P. aeruginosa. The description is as above. Conditions: P. aeruginosa. The class given is cell-based, Pseudomonas aeruginosa. Here is the method: as §1, §2
The subject of test [4] is S. paratyphi. The test is described as above. The class given is cell-based, Salmonella paratyphi.
From the text: The free ligands and their cyclometallated ruthenium(II) carbonyl complexes were screened for their in vitro antimicrobial activity against certain pathogenic bacterial and fungal species at three different concentrations using disc diffusion method. […] Tested complexes had better antimicrobial activity than the ligands against all pathogens. This may be explained by Tweedy's chelation theory.[61] Coordination of ligands reduce the polarity of the metal ion essentially by partial sharing of its positive charge with the donor groups within the chelate ring system formed during the coordination and leading to the increase in lipophilic nature of the central metal atom, which favours the effective permeation through the lipid layer of microorganism.[61,62] […] When tested against T. rubrum, the activity of the complexes in the order of 3 > 2 > 1 > 4. In antibacterial studies, the complex 3 was effective against S. aureus followed by complex 2, 1 and 4 and in the case of S. pneumonie the activity of the complexes follows the order of 3 > 1 > 4 > 2. […] When tested against S. paratyphi complex 1 stood out as good followed by the complexes 4, 3 and 2 respectively.
as §2

Test [5] concerns Aspergillus fumigatus. Put plainly: In vitro antifungal assay (zone of inhibition, MIC). The class given is cell-based. The method, then: as §1, §2
The test system of test [6] is Aspergillus niger. Described as above. In kind it is cell-based. Here is the method:
as §1, §2

Test [7] relates to Candida tropicalis. The test is described as above. In kind it is cell-based. The method, then: as §1, §2
Test [8] has as its system Trichophyton rubrum. The description is as above. In kind it is cell-based. Here is the method:
as §1, §2

Test [9] has as its system C. albicans. Described as above. In kind it is cell-based, Candida albicans. Conditions: C. albicans. Here is the method:
as §1, §2

Test [10] can be described thus: Total antioxidant capacity, phosphomolybdate method. Here is the method: (§3) It has been reported that free radical species such as reactive oxygen species (ROS), are involved in the pathogenesis of various diseases through effects on DNA directly and by acting as a tumour promoter.[59,60] The DPPH free radical scavenging activity of the ligands and complexes were studied and quantitatively antioxidant properties were determined by using phosphomolybdate method. We knew that the inhibitory effects of the tested compounds on DPPH radical are concentration dependent and the suppression ratio increases with increasing sample concentrations (Fig. S36 ^†). […] In the phosphomolybdenum assay, the antioxidant activity is expressed as the number of equivalents of ascorbic acid (Table 6). The total antioxidant activity of the compounds is in the following order complex 3 > complex 2 > complex 1 > complex 4 > H2L^3 > H2L^2 > H2L^1 > H2L^4 > ascorbic acid > [RuHClCO(PPh3)3]. The results concluded that the metal complexes are better antioxidants than their parent ligands which may be due to the chelation of the ligands to metal ion.[35] The radical scavenging ability of the new complexes is greater than that of few other reported ruthenium complexes, containing Schiff base ligands.[9]
(§4) The DPPH radical scavenging activity of the compounds have been carried out according to the reported method.[74] In this study, various concentrations of the experimental standard ascorbic acid, [RuHCl(CO)(PPh3)3], ligands (20–100 μM) and complexes (2–10 μM) in methanol were taken. Total antioxidant activity of the compounds was determined by the phosphomolybdate method.[75]

The subject of test [11] is human breast cancer cell line MCF-7. Put plainly: MTT cytotoxicity assay. Conditions: MTT, 48 h; read-out: IC50 values MCF-7. In kind it is cell-based. An excerpt: (§5) The DNA/protein binding studies, antioxidant and antimicrobial studies had shown that the ligands and ruthenium(II) complexes studied here have therapeutic potentials and were subjected to study their anticancer activity. A number of coumarin derivatives have shown considerable anticancer activity against a number of cell lines. All the 3-acetyl-7-methoxy-coumarin-4(N)-substituted thiosemicarbazone ligands, metal precursor [RuHClCO(PPh3)3] and their new cyclometallated Ru(II) complexes were assessed for their cytotoxicity with two human derived cell lines namely human lung carcinoma (A549) and human breast cancer cells (MCF-7) by using MTT assay. For comparison purpose, cisplatin was used as a positive control under identical conditions.
(§6) Cytotoxic activity of the compounds was tested with human lung cancer cell lines A549, human breast cancer cell lines MCF-7 and human normal keratinocyte cells (HaCaT) by using MTT assay, which was done according to the earlier literature methods[77] and IC50 values obtained from nonlinear regression using GraphPad Prism 5.[78] The LDH release[79] and NO release[80] assays of the compounds was evaluated by the earlier reported methods.

Test [12] has as its system human lung carcinoma cancer cell line A549. Put plainly: MTT cytotoxicity assay. In kind it is cell-based. Conditions: MTT, 48 h; read-out: IC50 values A549.
From the text: as §5, §6

Test [13] relates to human normal keratinocyte cells (HaCaT). In words: MTT cytotoxicity assay. The class given is cell-based. Conditions: MTT, 48 h, normal cells; read-out: IC50 values HaCaT. Here is the method:
In order to investigate the selectivity of the compounds for cancer cells rather than normal cell lines, the compounds were also screened for their anticancer activity on the human normal keratinocyte cells (HaCaT).
as §6

Test [14] can be described thus: DPPH radical scavenging assay. Conditions: in methanol. Here is the method: as §3, §4

For `CNC(C)C1CCC(N)C(OC2C(N)CC(N)C(OC3OCC(C)(O)C(NC)C3O)C2O)O1` (stereo not shown) [Gentamicin, reference compound], the zone of inhibition at 25 µg/mL in test [1] (Staphylococcus aureus, 25 µg/ml) is 20.3 ± 0.43 mm; in test [2] (Streptococcus, 25 µg/ml) it was 20.3 ± 0.39 mm; in [3] (Pseudomonas aeruginosa, 25 µg/ml), 20.2 ± 0.22 mm; in [4] (Salmonella enterica, 25 µg/ml), 20.4 ± 0.44 mm.

As for `CC(=O)N1CCN(c2ccc(OCC3COC(Cn4ccnc4)(c4ccc(Cl)cc4Cl)O3)cc2)CC1` (stereo not shown) [Ketaconazole, reference compound], the zone of inhibition at 25 µg/mL in [5] (25 µg/ml) was 23 ± 0.25 mm; in test [6] (25 µg/ml), 21.89 ± 0.11 mm; in test [7] (25 µg/ml), 19.5 ± 0.23 mm; in test [8] (25 µg/ml), 24.12 ± 0.16 mm; in [9] (Candida albicans, 25 µg/ml), 20.34 ± 0.2 mm.

`[C-]#[O+].[Cl][RuH].c1ccc(P(c2ccccc2)c2ccccc2)cc1.c1ccc(P(c2ccccc2)c2ccccc2)cc1.c1ccc(P(c2ccccc2)c2ccccc2)cc1` [[RuHClCO(PPh3)3], reference compound]: the Total antioxidant capacity in [10] is reported as 07.02 ± 0.08 μg ascorbic acid equivalents/ml. Also, the “Minimum inhibitory concentration (MIC); head: IC50 VALUES” in test [1] was 35.84 ± 0.37 µM; in test [2] it was 33.05 ± 0.28 µM; in test [3], 30.19 ± 0.53 µM; in test [5] it was 29.75 ± 0.54 µM; in [6], 31.63 ± 0.59 µM; in test [7] it was 28.79 ± 0.41 µM. Further, the “Minimum inhibitory concentration (MIC); head: IC50 VALUES” in test [8] came out at 31.76 ± 0.42 µM; in [9] it was 26.09 ± 0.48 µM. For the same compound, the Zone of inhibition in test [1] (50 µg/ml) stood at 15.19±0.08 mm; in [1] (100 µg/ml) it was 17.67±0.78 mm; in [2] (50 µg/ml), 14.39±0.34 mm; in [2] (100 µg/ml), 16.44±0.11 mm; in test [3] (50 µg/ml), 15.78±0.44 mm; in test [3] (100 µg/ml), 17.89±0.42 mm. Also, the Zone of inhibition in test [4] (50 µg/ml) amounted to 13.29±0.65 mm; in [4] (100 µg/ml), 17.44±0.55 mm; in [5] (50 µg/ml), 15.58±0.65 mm; in test [5] (100 µg/ml), 18.38±0.65 mm; in test [6] (50 µg/ml), 13.19±0.34 mm; in test [6] (100 µg/ml) it was 15.14±0.31 mm. For the same compound, the Zone of inhibition in test [7] (50 µg/ml) came out at 14.78±0.43 mm; in test [7] (100 µg/ml), 18.59±0.41 mm; in test [8] (50 µg/ml), 14.18±0.54 mm; in test [8] (100 µg/ml), 17.91±0.24 mm; in [9] (50 µg/ml), 13.29±0.45 mm; in test [9] (100 µg/ml) it was 16.67±0.11 mm. Further, the figures for the IC50 in [11], in [12] and in test [13] were 20.1 ± 0.18 µM, 16 ± 0.21 µM and greater than 40 µM, respectively.

For the compound `O=C1O[C@H]([C@@H](O)CO)C(O)=C1O` [vitamin C, ascorbic acid, reference compound], in test [14], half-maximal inhibition (IC50) required 98.7 ± 1.5 µM.

On to `N.N.[Cl][Pt][Cl]` [Cisplatin, reference compound], for which the IC50 was 16.79 ± 0.08 µM in [11], 15.1 ± 0.05 µM in [12] and greater than 40 µM in [13].
